The source of these data is article PMC4481117 (Molecular Pain, 2015).

The test system of test [1] is αMI-domain (active and nonactive forms). As to the kind of experiment: Solid-phase binding of active and nonactive GST-αMI-domains. Conditions: immobilized peptide, 1.5 h at 22 °C, anti-GST detection, 405 nm; means of triplicates, representative of n = 4. On the procedure:
Fig. 2 Binding of the active and nonactive αMI-domain conformers to dynorphin. a, the 3D structure of active (PDB ID 1ido) and nonactive (PDB ID 1jlm) αMI-domains are shown as ribbon diagrams. The wells of microtiter plates were coated with different concentrations of dynorphin A (b) and the D100 fragment of fibrinogen (c). The active (●) and nonactive (○) recombinant αMI-domains containing GST fusion parts were added to the wells and incubated for 1.5 h at 22 °C. Bound αMI-domains were detected with an anti-GST mAb followed by an AP-conjugated secondary antibody. Data are the means of triplicate determinations, and error bars represent S.E. Representative experiments in b (n = 4) and c (n = 4) are shown. For multiple comparisons, individual concentrations were tested using t-test with p-value of 0.05 corrected by Bonferroni method and accepting values of 0.007 as significant (**).
Dyn A ([…]), Dyn B ([…]), and control peptide ([…]) were purchased from AnaSpec, Inc (San Jose, CA). […]
Microtiter plates were coated with different concentrations of the fibrinogen D100 fragment or Dyn A overnight at 4 °C and post-coated with 3 % BSA for 1 h. […] After washing, goat anti-mouse IgG conjugated to alkaline phosphatase was added for 1 h and the binding of the αMI-domains was detected by reaction with p-nitrophenyl phosphate measuring the absorbance at 405 nm. […]

Test [2] deals with IC-21 macrophages. The experiment in a line: Phagocytosis of Dyn A-coated latex beads by IC-21 macrophages. Type of test: cell-based, murine. The conditions noted are these: 1 μm beads preincubated with 50 μg/ml Dyn A, 30 min at 37 °C; vs control beads. On the procedure:
Fig. 8 Effect of Dyn A on phagocytosis of latex beads. a, Fluorescent latex beads (1x10^9/ml) were preincubated with Dyn A (50 μg/ml) for 40 min at 37 °C. Soluble peptide was removed from the beads by high-speed centrifugation. Peptide-coated beads were incubated with adherent IC-21 macrophages for 30 min at 37 °C. Nonphagocytosed beads were removed from cells by washing with PBS. […] Rat IgG2b was used as an isotype control for anti-αM mAb M1/70. Phagocytosis was quantified for five random fields per well using a 20x objective. Phagocytosis of Dyn A-treated beads was assigned as 100 %.
A suspension of fluorescent […] latex beads (1x10^9/ml) (FluoSpheres sulfate microspheres, Life Technologies, Carlsbad, CA) was incubated with 50 μg/ml of Dyn A for 40 min at 37 °C, then unbound peptide was removed by centrifugation. IC-21 murine macrophages (5 × 10^5/ml) were adhered on the cover glass for 30 min and 3 × 10^6 of peptide-coated beads were added to adherent IC-21 cells. After incubating for 30 minutes at 37 °C, nonphagocytosed beads were separated from macrophages by washing with 3x1 ml PBS and phagocytosed beads were counted in the presence of trypan blue. […] The ratio of beads per macrophage was quantified by taking photographs of five fields for each well using a Leica DM4000 B microscope (Leica Microsystems, Buffalo Grove, IL) with a 20 × objective.

Test [3] deals with macrophages. The conditions noted are these: cited from earlier work. From the text: (§1) Apart from their effects on κ-opioid receptors on neurons, Dyn A exerts numerous effects on leukocytes, particularly myeloid cells. […] In addition, Dyn A (residues 1–13) and Dyn A (residues 1–9) stimulate ...
Test [4] relates to macrophage. Conditions: cited from earlier work.
Description: as §1

Test [5] relates to rat mast cells. Conditions: cited from earlier work.
Description: as §1

Test [6] has as its system mouse peritoneal macrophages. Conditions: cited from earlier work. From the text: Apart from their effects on κ-opioid receptors on neurons, Dyn A exerts numerous effects on leukocytes, particularly myeloid cells. […] Similar to other cationic peptides, Dyn A can exert some effects essential for host defense.
The test system of test [7] is cells. The conditions noted are these: cited from earlier work.

Each structure is given as a SMILES string.

As for `CC[C@H](C)[C@H](NC(=O)[C@H](CCCNC(=N)N)NC(=O)[C@H](CCCNC(=N)N)NC(=O)[C@H](CC(C)C)NC(=O)[C@H](Cc1ccccc1)NC(=O)CNC(=O)CNC(=O)[C@@H](N)Cc1ccc(O)cc1)C(=O)N[C@@H](CCCNC(=N)N)C(=O)N1CCC[C@H]1C(=O)N[C@@H](CCCCN)C(=O)N[C@@H](CC(C)C)C(=O)N[C@@H](CCCCN)C(=O)N[C@@H](Cc1c[nH]c2ccccc12)C(=O)N[C@@H](CC(=O)O)C(=O)N[C@@H](CC(N)=O)C(=O)N[C@@H](CCC(N)=O)C(=O)O` [Dyn A], the “Difference in binding of active and nonactive αMI-domains” value in test [1] was “No significant difference in binding of active and nonactive αMI-domains”. In addition, the “Augmentation of bead uptake” value in test [2] is reported as ~ 10 -fold. Besides, the “Secretion of IL-1 and TNFα” value in test [3] was “increase secretion of IL-1 and TNFα by macrophages”. Moreover, in test [4], the Superoxide generation entry is recorded as “stimulate macrophage superoxide generation” and the Zymosan-triggered oxidative burst entry was “enhance macrophage zymosan-triggered oxidative burst”. Further, the Nitric oxide release result in test [4] (induced by LPS and IFN-γ) was “decrease nitric oxide release induced by LPS and IFN-γ”. Moreover, in test [5], the “Degranulation and histamine release” value is “induce degranulation and histamine release from rat mast cells”. The “Phagocytosis by mouse peritoneal macrophages” value in test [6] is “enhance phagocytosis by mouse peritoneal macrophages”. For the same compound, the Cell entry entry in test [7] was “enters the cells”.
